This assay addresses T1, KCNQ2/3 channels (Homo sapiens, UniProt O43525+O43526).
T1 construct: expressed in transfected cells
The assay is described as follows: Fluorescence assay using a voltage sensitive dye (fluorimetry). Type of assay: cell-based. The settings on record: CHO-K1 cells expressing KCNQ2/3; for Emax: CHO-K1, plateau effect relative to saturated retigabine (50 μM) = 100%, negative values = antagonistic, read-out: Fluorimetry % efficacy (retigabine = 100%); for EC50: IC50 where % efficacy is negative, read-out: Fluorimetry EC50/IC50.

T1 sequence (O43526 whole entry): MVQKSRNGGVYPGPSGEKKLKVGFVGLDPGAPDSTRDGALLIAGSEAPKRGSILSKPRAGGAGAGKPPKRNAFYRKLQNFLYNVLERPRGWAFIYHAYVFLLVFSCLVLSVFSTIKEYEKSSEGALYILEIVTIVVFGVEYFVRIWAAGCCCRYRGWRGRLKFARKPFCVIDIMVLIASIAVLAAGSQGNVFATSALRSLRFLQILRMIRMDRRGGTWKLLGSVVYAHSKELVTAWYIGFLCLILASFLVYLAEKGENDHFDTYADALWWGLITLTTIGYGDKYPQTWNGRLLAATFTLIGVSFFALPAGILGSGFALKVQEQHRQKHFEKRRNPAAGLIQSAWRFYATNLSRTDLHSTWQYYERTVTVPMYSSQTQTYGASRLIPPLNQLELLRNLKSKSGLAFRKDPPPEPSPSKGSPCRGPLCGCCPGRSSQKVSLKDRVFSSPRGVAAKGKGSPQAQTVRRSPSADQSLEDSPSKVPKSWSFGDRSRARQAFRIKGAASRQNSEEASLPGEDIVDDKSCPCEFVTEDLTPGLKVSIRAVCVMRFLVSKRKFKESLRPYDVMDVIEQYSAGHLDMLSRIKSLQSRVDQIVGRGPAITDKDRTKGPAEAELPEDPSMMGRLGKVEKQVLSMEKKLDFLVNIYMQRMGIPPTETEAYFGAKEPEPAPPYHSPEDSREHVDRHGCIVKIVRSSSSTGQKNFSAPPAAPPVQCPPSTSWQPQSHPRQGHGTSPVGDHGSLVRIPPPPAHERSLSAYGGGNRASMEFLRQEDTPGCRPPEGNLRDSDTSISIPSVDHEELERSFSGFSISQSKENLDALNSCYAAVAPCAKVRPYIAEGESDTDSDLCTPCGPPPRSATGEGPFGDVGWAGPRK
T1 sequence (O43525 whole entry): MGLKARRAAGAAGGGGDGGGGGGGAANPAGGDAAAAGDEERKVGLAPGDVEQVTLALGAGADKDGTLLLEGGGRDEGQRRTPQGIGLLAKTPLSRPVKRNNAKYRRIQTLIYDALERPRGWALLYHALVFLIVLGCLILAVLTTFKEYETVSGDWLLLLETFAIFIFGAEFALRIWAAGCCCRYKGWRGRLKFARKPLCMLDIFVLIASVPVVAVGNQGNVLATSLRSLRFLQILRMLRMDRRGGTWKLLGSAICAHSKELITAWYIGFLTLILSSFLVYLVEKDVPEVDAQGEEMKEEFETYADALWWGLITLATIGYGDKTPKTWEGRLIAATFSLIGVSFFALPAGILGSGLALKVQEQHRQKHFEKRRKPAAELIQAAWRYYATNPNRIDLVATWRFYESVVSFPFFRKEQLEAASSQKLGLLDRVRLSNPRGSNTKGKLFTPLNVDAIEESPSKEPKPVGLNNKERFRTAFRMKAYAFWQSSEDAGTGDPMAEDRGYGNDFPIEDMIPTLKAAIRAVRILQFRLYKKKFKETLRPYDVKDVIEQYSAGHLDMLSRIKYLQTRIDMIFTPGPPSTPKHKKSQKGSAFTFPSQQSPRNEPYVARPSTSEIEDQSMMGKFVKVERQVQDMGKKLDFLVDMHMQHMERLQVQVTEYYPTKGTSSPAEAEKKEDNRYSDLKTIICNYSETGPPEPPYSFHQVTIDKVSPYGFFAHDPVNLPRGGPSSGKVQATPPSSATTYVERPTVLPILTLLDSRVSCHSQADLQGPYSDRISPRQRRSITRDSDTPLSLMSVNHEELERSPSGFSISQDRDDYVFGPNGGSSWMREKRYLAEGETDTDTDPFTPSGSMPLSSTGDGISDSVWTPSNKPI

On to `CCCCNC(=O)c1c(C)cc(N2CCOCC2)nc1SCC` [Example 80, N-Butyl-2-ethylsulfanyl-4-methyl-6-morpholin-4-yl-pyridine-3-carboxylic acid amide], for which the Emax came to 147% and the EC50 came to 2170 nM.
The like results for `CCC(C)(C)c1nc(N2CCOCC2)cc(C)c1C(=O)NCCCC(C)(C)C` [Example 279, N-(4,4-Dimethyl-pentyl)-2-(1,1-dimethyl-propyl)-4-methyl-6-morpholin-4-yl-pyridine-3-carboxylic acid amide] were, in that order, 172% and 430 nM.
The like results for `CCSc1nc(N2CCOC[C@H]2C)cc(C)c1C(=O)NCc1cc(F)cc(F)c1` [Example 233, N-[(3,5-Difluoro-phenyl)-methyl]-2-ethylsulfanyl-4-methyl-6-[(3R)-3-methyl-morpholin-4-yl]-pyridine-3-carboxylic acid amide] were, in that order, 196% and 70 nM.
The like results for `CCSc1nc(N2Cc3ccccc3C2)cc(C)c1C(=O)NCc1cccc(F)c1` [Example 303, 6-(2,3-Dihydro-1H-isoindol-2-yl)-2-ethylsulfanyl-N-[(3-fluorophenyl)-methyl]-4-methyl-pyridine-3-carboxylic acid amide] were, in that order, 54% and 1150 nM.
As for `Cc1cc(N2CCOCC2)nc(C(C)(C)C)c1C(=O)NCc1cccc(F)c1` [Example 250, 2-tert-Butyl-N-[(3-fluorophenyl)-methyl]-4-methyl-6-morpholin-4-yl-pyridine-3-carboxylic acid amide], the Emax came out at 196% and the EC50 worked out at 371 nM.
The like results for `CCSc1nc(N2CCC(OC)C2)cc(C)c1C(=O)NCc1cccc(F)c1` (stereo not shown) [Example 30, 2-Ethylsulfanyl-N-[(3-fluorophenyl)-methyl]-6-(3-methoxy-pyrrolidin-1-yl)-4-methyl-pyridine-3-carboxylic acid amide] were, in that order, 144% and 1320 nM.
Regarding `CCSc1nc(N2CCOCC2)cc(C)c1C(=O)NCCCC(C)(C)OC` [Example 318, 2-Ethylsulfanyl-N-(4-methoxy-4-methyl-pentyl)-4-methyl-6-morpholin-4-yl-pyridine-3-carboxylic acid amide], the Emax amounted to 193% and the EC50 was determined as 2880 nM.
The like results for `CCN(C)c1nc(N2CCOC[C@H]2C)cc(C)c1C(=O)NCCCC(C)(C)C` [Example 184, N-(4,4-Dimethyl-pentyl)-2-(ethyl-methyl-amino)-4-methyl-6-[(3R)-3-methyl-morpholin-4-yl]-pyridine-3-carboxylic acid amide] were, in that order, 228% and 221 nM.
As to `CCSc1nc(N2CCC(O)CC2)cc(C)c1C(=O)NCc1cccc(F)c1` [Example 15, 2-Ethylsulfanyl-N-[(3-fluorophenyl)-methyl]-6-(4-hydroxy-piperidin-1-yl)-4-methyl-pyridine-3-carboxylic acid amide], the Emax was determined as 93% and the EC50 amounted to 7060 nM.
The like results for `CCSc1nc(N2CCN(C)C(=O)C2)cc(C)c1C(=O)NCc1cccc(F)c1` [Example 150, 2-Ethylsulfanyl-N-[(3-fluorophenyl)-methyl]-4-methyl-6-(4-methyl-3-oxo-piperazin-1-yl)-pyridine-3-carboxylic acid amide] were, in that order, 98% and 9650 nM.
The like results for `CCSc1nc(N(C)C2CCCOC2)cc(C)c1C(=O)NCc1cccc(F)c1` (stereo not shown) [Example 261, 2-Ethylsulfanyl-N-[(3-fluorophenyl)-methyl]-4-methyl-6-(methyl-tetrahydro-pyran-3-yl-amino)-pyridine-3-carboxylic acid amide] were, in that order, 96% and 786 nM.
For the compound `CCSc1nc(N(C)Cc2ccccn2)cc(C)c1C(=O)NCc1cccc(F)c1` [Example 121, 2-Ethylsulfanyl-N-[(3-fluorophenyl)-methyl]-4-methyl-6-[methyl-(pyridin-2-yl-methyl)-amino]-pyridine-3-carboxylic acid amide], the Emax came to 35%.
For `CCSc1nc(N2CCOCC2)cc(C)c1C(=O)NCc1ccc(F)c(C(F)(F)F)c1` [Example 82, 2-Ethylsulfanyl-N-[[4-fluoro-3-(trifluoromethyl)-phenyl]-methyl]-4-methyl-6-morpholin-4-yl-pyridine-3-carboxylic acid amide], the Emax was determined as 117% and the EC50 amounted to 118 nM.
The like results for `CCSc1nc(N2CCOC[C@H]2C)cc(C)c1C(=O)NCc1ccc(F)c(COC)c1` [Example 352, 2-Ethylsulfanyl-N-[[4-fluoro-3-(methoxymethyl)-phenyl]-methyl]-4-methyl-6-[(3R)-3-methyl-morpholin-4-yl]-pyridine-3-carboxylic acid amide] were, in that order, 166% and 287 nM.
With `CCSc1nc(N(CCCOC)Cc2ccc(F)cc2)cc(C)c1C(=O)NCc1cccc(F)c1` [Example 338, 2-Ethylsulfanyl-N-[(3-fluorophenyl)-methyl]-6-[(4-fluorophenyl)-methyl-(3-methoxy-propyl)-amino]-4-methyl-pyridine-3-carboxylic acid amide], the Emax is 73% and the EC50 was 320 nM.
For the compound `CCSc1nc(N2CCOC[C@H]2C)cc(C)c1C(=O)NCc1ccc(C(F)(F)F)cc1` [Example 237, 2-Ethylsulfanyl-4-methyl-6-[(3R)-3-methyl-morpholin-4-yl]-N-[[4-(trifluoromethyl)-phenyl]-methyl]-pyridine-3-carboxylic acid amide], the Emax worked out at 148% and the EC50 was 56 nM.
Consider `CCSc1nc(N(C)C(=O)c2ccc(F)cc2)cc(C)c1C(=O)NCc1cccc(F)c1` [Example 120, 2-Ethylsulfanyl-6-[(4-fluoro-benzoyl)-methyl-amino]-N-[(3-fluorophenyl)-methyl]-4-methyl-pyridine-3-carboxylic acid amide], for which the Emax is 10%.
On to `CCCOc1nc(N2CCOCC2)cc(C)c1C(=O)NCc1cccc(F)c1` [Example 111, N-[(3-Fluorophenyl)-methyl]-4-methyl-6-morpholin-4-yl-2-propoxy-pyridine-3-carboxylic acid amide], for which the Emax was 153% and the EC50 is 109 nM.
As for `CCSc1nc(N2CCOCC2)cc(C)c1C(=O)NCc1cccc(F)c1F` [Example 100, N-[(2,3-Difluoro-phenyl)-methyl]-2-ethylsulfanyl-4-methyl-6-morpholin-4-yl-pyridine-3-carboxylic acid amide], the Emax was 98% and the EC50 came to 118 nM.
On to `CCSc1nc(N2CCOCC2)cc(C)c1C(=O)NCc1ccccc1` [Example 55, N-Benzyl-2-ethylsulfanyl-4-methyl-6-morpholin-4-yl-pyridine-3-carboxylic acid amide], for which the Emax turned out to be 162% and the EC50 is 260 nM.
For the compound `CCSc1nc(N2CCOC[C@@H]2CO)cc(C)c1C(=O)NCc1cccc(F)c1` [Example 263, 2-Ethylsulfanyl-N-[(3-fluorophenyl)-methyl]-6-[(3S)-3-(hydroxymethyl)-morpholin-4-yl]-4-methyl-pyridine-3-carboxylic acid amide], the Emax amounted to 114% and the EC50 amounted to 4140 nM.
The like results for `CSc1nc(N2CCOC[C@H]2C)cc(C)c1C(=O)NCCCC(C)(C)C` [Example 192, N-(4,4-Dimethyl-pentyl)-4-methyl-6-[(3R)-3-methyl-morpholin-4-yl]-2-methylsulfanyl-pyridine-3-carboxylic acid amide] were, in that order, 236% and 46 nM.
The like results for `CCSc1nc(N2CC(=O)C2)cc(C)c1C(=O)NCc1cccc(F)c1` [Example 112, 2-Ethylsulfanyl-N-[(3-fluorophenyl)-methyl]-4-methyl-6-(3-oxo-azetidin-1-yl)-pyridine-3-carboxylic acid amide] were, in that order, 130% and 2740 nM.
The like results for `CCSc1nc(N2CCOCC2)cc(C)c1C(=O)NCc1ccc(OC)c(F)c1` [Example 287, 2-Ethylsulfanyl-N-[(3-fluoro-4-methoxy-phenyl)-methyl]-4-methyl-6-morpholin-4-yl-pyridine-3-carboxylic acid amide] were, in that order, 153% and 971 nM.
`CCSc1nc(N2CCOCC2)cc(C)c1C(=O)NCCC1CCCC1` [Example 44, N-(2-Cyclopentyl-ethyl)-2-ethylsulfanyl-4-methyl-6-morpholin-4-yl-pyridine-3-carboxylic acid amide]: the Emax was determined as 116% and the EC50 was found to be 87 nM.
The like results for `COc1nc(N2CCOCC2)cc(C)c1C(=O)NCc1ccc(F)c(F)c1` [Example 87, N-[(3,4-Difluoro-phenyl)-methyl]-2-methoxy-4-methyl-6-morpholin-4-yl-pyridine-3-carboxylic acid amide] were, in that order, 138% and 311 nM.
With `CCCc1nc(N2CCOCC2)cc(C)c1C(=O)NCc1ccc(Cl)cc1` [Example 326, N-[(4-Chlorophenyl)-methyl]-4-methyl-6-morpholin-4-yl-2-propyl-pyridine-3-carboxylic acid amide], the Emax was 163% and the EC50 amounted to 59 nM.
Take `CCc1nc(N2CCOCC2)cc(C)c1C(=O)NCc1cccc(F)c1` [Example 22, 2-Ethyl-N-[(3-fluorophenyl)-methyl]-4-methyl-6-morpholin-4-yl-pyridine-3-carboxylic acid amide]: the Emax came to 166% and the EC50 was determined as 790 nM.
For `CCSc1nc(N2CCCC2)cc(C)c1C(=O)NCc1cccc(F)c1` [Example 25, 2-Ethylsulfanyl-N-[(3-fluorophenyl)-methyl]-4-methyl-6-pyrrolidin-1-yl-pyridine-3-carboxylic acid amide], the Emax was determined as 162% and the EC50 was determined as 211 nM.
Take `COCCSc1nc(N2CCOCC2)cc(C)c1C(=O)NCc1cccc(F)c1` [Example 63, N-[(3-Fluorophenyl)-methyl]-2-(2-methoxy-ethylsulfanyl)-4-methyl-6-morpholin-4-yl-pyridine-3-carboxylic acid amide]: the Emax is 157% and the EC50 stood at 585 nM.
